Results from patent US7052874B2, “Detection of antibacterial activity in excretory secretory product of adult Trichuris suis” (priority 2000, dated 2006).
Where a name gives a salt, the structure may show the parent alone. Read-outs that look alike come from different tables or passages of the source.

Legend:
Campylobacter jejuni [1] = experiment: Heat stability of antibiotics (boiling, then qualitative broth microdilution assay); assay type: cell-based; settings: for inactivation of antibiotic by heat treatment: boiling
Description: A broth microdilution method in 96 well plates was used to obtain qualitative and quantitative measures of antibacterial activity. Qualitatively, 50 μl samples of ESP were added to 50 μl suspensions of Campylobacter jejuni (containing about 5×10^5 cfu, as determined by standard serial dilution and plating) in 96 well plates. Plates were evaluated for growth as indicated by the presence of either turbidity or pellet of bacterial cells in the bottoms of U-shaped wells after 48 hr incubation. […] The size of the drug was also taken into consideration. Additionally, an experiment to assess the heat stability of the antibiotics was performed.

Campylobacter jejuni [2] = experiment: Qualitative broth microdilution assay of ultrafiltration and HPLC fractions; assay type: cell-based; settings: C18 reverse phase HPLC, 5–80% ACN gradient
Description: A broth microdilution method in 96 well plates was used to obtain qualitative and quantitative measures of antibacterial activity. Qualitatively, 50 μl samples of ESP were added to 50 μl suspensions of Campylobacter jejuni (containing about 5×10^5 cfu, as determined by standard serial dilution and plating) in 96 well plates. Plates were evaluated for growth as indicated by the presence of either turbidity or pellet of bacterial cells in the bottoms of U-shaped wells after 48 hr incubation.
Ultrafiltration. Ultrafiltration methods were used to nominally size fractionate ESP for an approximate determination of the molecular weight of the antibacterial agent(s). AMICON stirred cells under pressurized nitrogen gas were used to separate ESP into fractions above (retentate) and below (filtrate) 30,000 MW with a Millipore YM30 membrane (Millipore) and fractions above (retentate) and below (filtrate) 10,000 MW with a Millipore YM10 membrane. Prior to bioassay, the concentrated retentate fraction was returned to its original volume in RPMI-1640 media to match the volume of the filtrate so that comparisons of relative activity could be made without distortions due to volume differences. […]
High performance liquid chromatography. […] Absorbance of the eluate was monitored at 214 nm, and fractions were collected manually as peaks were detected. […]

[3] = n-octanol/water partition coefficient (log PC) of antibiotics; assay type: physicochemical; settings: in parentheses beside log PC
Description: Consideration of CAP contamination. […] Using the worst-case scenario, the predicted maximum amount of CAP absorbed and how much would be released into the medium if the whipworms dissolved (i.e., released 100%) was estimated. […] It was assumed that the aggregate whipworm volume of these eccentrically shaped nematodes occupied 4% of the incubation well volume (4 whipworms/ml at about 10 μl/whipworm).

[4] = compiled from a drug database at Upjohn; cited from earlier work

O=C(N[C@H](CO)[C@H](O)c1ccc([N+](=O)[O-])cc1)C(Cl)Cl [Chloramphenicol, chloramphenicol]
Antibacterial activity after boiling (Campylobacter jejuni [1]): + | inactivation of antibiotic by heat treatment (Campylobacter jejuni [1]): not heat-inactivated | antibacterial activity of HPLC fractions (Campylobacter jejuni [2]): one fraction with antibacterial activity

CC1(C)S[C@@H]2[C@H](NC(=O)Cc3ccccc3)C(=O)N2[C@H]1C(=O)O [Penicillin G]
Antibacterial activity after boiling (Campylobacter jejuni [1]; antibiotics (133 concentration) boiled for 10 minutes): − | inactivation of antibiotic by heat treatment (Campylobacter jejuni [1]): inactivated by heat treatment | Concentrating factor [3]: (71×)

[H]/N=C(/N)N[C@H]1[C@H](O)[C@@H](O)[C@H](O[C@@H]2O[C@@H](C)[C@](O)(C=O)[C@H]2O[C@@H]2O[C@@H](CO)[C@H](O)[C@@H](O)[C@@H]2NC)[C@@H](N/C(N)=N\[H])[C@@H]1O [Streptomycin sulfate]
Antibacterial activity after boiling (Campylobacter jejuni [1]): + | inactivation of antibiotic by heat treatment (Campylobacter jejuni [1]): boiling did not inactivate | log PC (n-octanol/water partition coefficient) [4]: −9.53
